Measured values from paper PMC11672562, “Synthesis and Antibacterial Activity of New 6″-Modified Tobramycin Derivatives” (Antibiotics, 2024).
≈ marks a conversion by molar mass, not a printed value.

Assays:
[1] = test system: E. coli JW5503 transformed with pJC27 plasmids; assay: Translation accuracy reporter (mutant β-galactosidase, X-Gal staining); type: cell-based; details: 4a,b, 6a,b and tobramycin 50 mg/mL; streptomycin, kanamycin 5 mg/mL; rifampicin 1 mg/mL
Description: It is known that tobramycin inhibits protein biosynthesis by the blocking of initiation and inducing translation errors. We have tested whether the new tobramycin derivatives 4a,b and 6a,b retain the ability to induce translation errors. This assay uses an E. coli strain with a plasmid construct that encodes beta-galactosidase in such a way that a functional protein is only synthesized in the presence of translation errors. If the mechanism of action of the antibiotic is related to the translation errors, we observe indigo blue staining along the edge of the inhibition zone because functional b-galactosidase degrades the substrate X-Gal. As a result, if the antibiotic causes translation errors, blue staining forms around the edge of the inhibition zone. […] According to this, an introduction at the 6″-position of the aminoalkylamino or guanidinoalkylamino residues of tobramycin retains an original mechanism of aminoglycoside’s antibacterial activity affecting the protein synthesis.
To qualitatively evaluate translation accuracy in the presence of antibiotics, E. coli JW5503 [34] (kanamycin resistance cassette removed as per) transformed with pJC27 plasmids was utilized. The plasmids encode the β-galactosidase gene containing a mutation in its active center (E537: GAA→GAC/GGG), alongside a control plasmid without the mutation. Active β-galactosidase synthesis could only occur if translation errors were introduced. Petri dishes (9 cm) containing 20 mL of solid LB agar (1.5%) supplemented with chloramphenicol (11.3 μg/mL) and X-Gal (80 μg/mL) were prepared. A secondary layer comprising 3.5 mL of LB agar (0.6%), supplemented with 11.3 μg/mL chloramphenicol and 0.5 mL of liquid culture (A600~1.0), was added and allowed to solidify. Antibiotics were applied to the plates in 1 μL aliquots at the following concentrations: 50 mg/mL for 4a, 4b, 6a, 6b, and tobramycin; 5 mg/mL for streptomycin and kanamycin; and 1 mg/mL for rifampicin. Plates were incubated at 37 °C for 18 h. […] Results were documented using a Samsung Galaxy Tab A71 camera.

P. aeruginosa ATCC 27853 = assay: MIC, broth microdilution, P. aeruginosa ATCC 27853; type: cell-based; details: for MIC: Pseudomonas aeruginosa, ATCC27853, P. aeruginosa ATCC 27853, Table 1, read-out: MIC
Procedure: The microbial strains used in this study were obtained from the collection of the Gause Institute of New Antibiotics. […] Storage was carried out in accordance with CLSI guidelines.
Activity was evaluated by determining the minimum inhibitory concentration (MIC) values using the microdilution method in Mueller–Hinton Broth (Beckton and Dickinson, Le Pont-de-Claix, France), in accordance with the standard procedure for assessing the antimicrobial susceptibility of microorganisms.
The analysis was conducted in 96-well microtiter plates (Medpolymer, Saint Petersburg, Russia). The bacterial inoculum was introduced within 15 min of preparation. […] Microbial growth in the presence of the tested compounds was compared to the growth control (without exposure to the test samples). The MIC was defined as the lowest concentration at which visible microbial growth was inhibited.
The MIC values of the reference strains were required to fall within the acceptable ranges specified in [30], provided that standard assay conditions were maintained.

SMILES	induction of translation errors (blue staining at edge of inhibition zone) [1]	MIC of control antibiotic (P. aeruginosa ATCC 27853; P. aeruginosa ATCC 27853, quality control, must fall in acceptable ranges of [30])	MIC (P. aeruginosa ATCC 27853)
NC[C@H]1O[C@H](O[C@H]2[C@H](O)[C@@H](O[C@H]3O[C@H](CO)[C@@H](O)[C@H](N)[C@H]3O)[C@H](N)C[C@@H]2N)[C@H](N)C[C@@H]1O [Tobramycin, tobramycin]	increase the misreading	0.25 to 1 µg/mL	0.5 µg/mL (≈ 1.07 µM)
N=C(N)NCCCNC[C@H]1O[C@H](O[C@@H]2[C@@H](O)[C@H](O[C@H]3O[C@H](CN)[C@@H](O)C[C@H]3N)[C@@H](N)C[C@H]2N)[C@H](O)[C@@H](N)[C@@H]1O [Compound 6b, 6″-(3-Guanidinopropyl-1-amino)-6″-deoxytobramycin acetate]	caused a blue coloring of the bacterial lawn		2 µg/mL
NCCNC[C@H]1O[C@H](O[C@@H]2[C@@H](O)[C@H](O[C@H]3O[C@H](CN)[C@@H](O)C[C@H]3N)[C@@H](N)C[C@H]2N)[C@H](O)[C@@H](N)[C@@H]1O [Compound 4a, 6″-(2-Aminoethyamino)-6″-deoxytobramycin acetate]	caused a blue coloring of the bacterial lawn		1 µg/mL
N=C(N)NCCNC[C@H]1O[C@H](O[C@@H]2[C@@H](O)[C@H](O[C@H]3O[C@H](CN)[C@@H](O)C[C@H]3N)[C@@H](N)C[C@H]2N)[C@H](O)[C@@H](N)[C@@H]1O [Compound 6a, 6″-(2-Guanidinoethylamino)-6″-deoxytobramycin acetate]	caused a blue coloring of the bacterial lawn		1 µg/mL
NCCCNC[C@H]1O[C@H](O[C@@H]2[C@@H](O)[C@H](O[C@H]3O[C@H](CN)[C@@H](O)C[C@H]3N)[C@@H](N)C[C@H]2N)[C@H](O)[C@@H](N)[C@@H]1O [Compound 4b, 6″-(3-Aminopropyl-1-amino)-6″-deoxytobramycin acetate]	caused a blue coloring of the bacterial lawn		8 µg/mL
